From PMC8035703, “Effect of Synchronous Versus Sequential Regimens on the Pharmacokinetics and Biodistribution of Regorafenib with Irradiation” (Pharmaceutics, 2021)
Entries after “also recorded” stand apart in the source; their conditions may differ. Where two headings read alike, the source gives them in different places.

Assay: Organ distribution of regorafenib in rats with or without RT
Type: in vivo, Sprague-Dawley rats
Details: for concentration at 4 h: Sprague-Dawley, rat, 16 mg/kg, 4 h after oral administration
Description: According to the formula used to translate doses from animal to human, human equivalent dose (HED, mg/kg) = animal dose (mg/kg) × animal km/human km, we calculated the daily dose of regorafenib for rats to be 16 (mg/kg/day). The rats were randomly divided into ten groups with six rats in each group. The concurrent groups treated with regorafenib 1 h after RT, in the same day, to mimic regorafenib concurrent with RT in the daily practice. The sequential groups treated with regorafenib following RT (not in the same day), to mimic RT followed by regorafenib in the daily practice. The one fraction study group included (A) a sham group, regorafenib with RT0 Gy (regorafenib × 1 d); concurrent groups treated with regorafenib 1 h after (B) RT2 Gy with 1 fraction (RT2 Gy × 1 f’x) and (D) RT9 Gy with 1 fraction (RT9 Gy × 1 f’x); and sequential groups treated with regorafenib 24 h after (C) RT2 Gy × 1 f’x and (E) RT9 Gy × 1 f’x. Continued treatment mimicking clinical practice was applied to (A) a sham group, regorafenib (p.o. (per os), q.d. × 3 d) with RT0 Gy (regorafenib × 3 d); concurrent groups treated with regorafenib (p.o., q.d. × 3 d) 1 h after (B) RT2 Gy with 3 fractions (RT2 Gy × 3 f’x) and (D) RT9 Gy with 3 fractions (RT9Gy × 3 f’x); and sequential groups treated with regorafenib 24 h (p.o., q.d. × 3 d) after (C) RT2 Gy × 3 f’x and (E) RT9 Gy × 3 f’x. (Figure 1A,B).
Organs, including the brain, liver, heart, spleen, lung and kidney, were collected, weighed and stored at −20 °C, until analysis.
The organ samples were homogenized in 50% aqueous acetonitrile (sample weight: volume = 1:5) and centrifuged at 13,000× g, for 10 min, at 4 °C. The supernatant was stored at −20 °C, until analysis. Additionally, 150 μL of IS solution (diethylstilbestrol) was combined with each organ sample (50 μL) for protein precipitation. Finally, the filtrate (20 μL) was analyzed by HPLC.

**Q.** Which results are given for `CNC(=O)c1cc(Oc2ccc(NC(=O)Nc3ccc(Cl)c(C(F)(F)F)c3)c(F)c2)ccn1` [regorafenib, Regorafenib]?
**A.** concentration at 4 h (brain, oral, RT2 Gy × 1 f'x followed by regorafenib 16 mg/kg × 1 d (sequential), read-out: Concentration in brain): 80 ± 60 ng/g; concentration at 4 h (brain, oral, RT2 Gy × 3 f'x followed by regorafenib 16 mg/kg × 3 d (sequential), read-out: Concentration in brain): 30 ± 50 ng/g; concentration at 4 h (brain, oral, RT2 Gy × 3 f'x with regorafenib 16 mg/kg × 3 d (concurrent), read-out: Concentration in brain): 20 ± 50 ng/g; concentration at 4 h (brain, oral, RT9 Gy × 1 f'x with regorafenib 16 mg/kg × 1 d (concurrent), read-out: Concentration in brain): 10 ± 20 ng/g; concentration at 4 h (heart, oral, RT2 Gy × 1 f'x followed by regorafenib 16 mg/kg × 1 d (sequential), read-out: Concentration in heart): 780 ± 270 ng/g; concentration at 4 h (heart, oral, RT2 Gy × 3 f'x followed by regorafenib 16 mg/kg × 3 d (sequential), read-out: Concentration in heart): 290 ± 180 ng/g; concentration at 4 h (heart, oral, RT2 Gy × 3 f'x with regorafenib 16 mg/kg × 3 d (concurrent), read-out: Concentration in heart): 30 ± 30 ng/g; concentration at 4 h (heart, oral, RT9 Gy × 1 f'x with regorafenib 16 mg/kg × 1 d (concurrent), read-out: Concentration in heart): 360 ± 330 ng/g; concentration at 4 h (kidney, oral, RT2 Gy × 1 f'x followed by regorafenib 16 mg/kg × 1 d (sequential), read-out: Concentration in kidneys): 590 ± 270 ng/g; concentration at 4 h (kidney, oral, RT2 Gy × 3 f'x followed by regorafenib 16 mg/kg × 3 d (sequential), read-out: Concentration in kidneys): 730 ± 440 ng/g; concentration at 4 h (kidney, oral, RT2 Gy × 3 f'x with regorafenib 16 mg/kg × 3 d (concurrent), read-out: Concentration in kidneys): 130 ± 60 ng/g; concentration at 4 h (kidney, oral, RT9 Gy × 1 f'x with regorafenib 16 mg/kg × 1 d (concurrent), read-out: Concentration in kidneys): 180 ± 50 ng/g; concentration at 4 h (liver, oral, RT2 Gy × 1 f'x followed by regorafenib 16 mg/kg × 1 d (sequential), read-out: Concentration in liver): 2280 ± 750 ng/g; concentration at 4 h (liver, oral, RT2 Gy × 3 f'x followed by regorafenib 16 mg/kg × 3 d (sequential), read-out: Concentration in liver): 1680 ± 650 ng/g; concentration at 4 h (liver, oral, RT2 Gy × 3 f'x with regorafenib 16 mg/kg × 3 d (concurrent), read-out: Concentration in liver): 550 ± 270 ng/g; concentration at 4 h (liver, oral, RT9 Gy × 1 f'x with regorafenib 16 mg/kg × 1 d (concurrent), read-out: Concentration in liver): 1010 ± 580 ng/g; concentration at 4 h (lung, oral, RT2 Gy × 1 f'x followed by regorafenib 16 mg/kg × 1 d (sequential), read-out: Concentration in lung): 1270 ± 640 ng/g; concentration at 4 h (lung, oral, RT2 Gy × 3 f'x followed by regorafenib 16 mg/kg × 3 d (sequential), read-out: Concentration in lung): 990 ± 430 ng/g; concentration at 4 h (lung, oral, RT2 Gy × 3 f'x with regorafenib 16 mg/kg × 3 d (concurrent), read-out: Concentration in lung): 210 ± 90 ng/g; concentration at 4 h (lung, oral, RT9 Gy × 1 f'x with regorafenib 16 mg/kg × 1 d (concurrent), read-out: Concentration in lung): 170 ± 140 ng/g; concentration at 4 h (spleen, oral, RT2 Gy × 1 f'x followed by regorafenib 16 mg/kg × 1 d (sequential), read-out: Concentration in spleen): 680 ± 300 ng/g; concentration at 4 h (spleen, oral, RT2 Gy × 3 f'x followed by regorafenib 16 mg/kg × 3 d (sequential), read-out: Concentration in spleen): 410 ± 240 ng/g; concentration at 4 h (spleen, oral, RT2 Gy × 3 f'x with regorafenib 16 mg/kg × 3 d (concurrent), read-out: Concentration in spleen): 80 ± 60 ng/g; concentration at 4 h (spleen, oral, RT9 Gy × 1 f'x with regorafenib 16 mg/kg × 1 d (concurrent), read-out: Concentration in spleen): 140 ± 70 ng/g; Biodistribution in heart, liver, lung, spleen and kidneys (in words) (concurrent RT2 Gy × 3 f'x and RT9 Gy × 3 f'x vs control (regorafenib × 3 d)): clearly decreased the biodistribution of regorafenib; also recorded: obviously decreased the biodistribution of regorafenib; concentration at 4 h (male, brain, oral, RT2 Gy × 1 f'x with regorafenib 16 mg/kg × 1 d (concurrent), read-out: Concentration in brain): 20 ± 30 ng/g; concentration at 4 h (male, brain, oral, RT9 Gy × 1 f'x followed by regorafenib 16 mg/kg × 1 d (sequential), read-out: Concentration in brain): 60 ± 50 ng/g; concentration at 4 h (male, brain, oral, RT9 Gy × 3 f'x followed by regorafenib 16 mg/kg × 3 d (sequential), read-out: Concentration in brain): 40 ± 80 ng/g; concentration at 4 h (male, brain, oral, RT9 Gy × 3 f'x with regorafenib 16 mg/kg × 3 d (concurrent), read-out: Concentration in brain): 10 ± 20 ng/g; concentration at 4 h (male, brain, po, 16 mg/kg p.o. × 1 d, no RT, read-out: Concentration in brain): 30 ± 40 ng/g; concentration at 4 h (male, brain, po, 16 mg/kg p.o. × 3 d, no RT, read-out: Concentration in brain): 10 ± 20 ng/g; concentration at 4 h (male, heart, oral, RT2 Gy × 1 f'x with regorafenib 16 mg/kg × 1 d (concurrent), read-out: Concentration in heart): 290 ± 170 ng/g; concentration at 4 h (male, heart, oral, RT9 Gy × 1 f'x followed by regorafenib 16 mg/kg × 1 d (sequential), read-out: Concentration in heart): 870 ± 140 ng/g; concentration at 4 h (male, heart, oral, RT9 Gy × 3 f'x followed by regorafenib 16 mg/kg × 3 d (sequential), read-out: Concentration in heart): 170 ± 270 ng/g; concentration at 4 h (male, heart, oral, RT9 Gy × 3 f'x with regorafenib 16 mg/kg × 3 d (concurrent), read-out: Concentration in heart): 90 ± 70 ng/g; concentration at 4 h (male, heart, po, 16 mg/kg p.o. × 1 d, no RT, read-out: Concentration in heart): 450 ± 310 ng/g; concentration at 4 h (male, heart, po, 16 mg/kg p.o. × 3 d, no RT, read-out: Concentration in heart): 250 ± 100 ng/g; concentration at 4 h (male, kidney, oral, RT2 Gy × 1 f'x with regorafenib 16 mg/kg × 1 d (concurrent), read-out: Concentration in kidneys): 210 ± 110 ng/g
